Results: US12304890B2, “R-type pyridyloxycarboxylic acid, salt and ester derivative thereof, and preparation method therefor, and herbicidal composition and application thereof” (Qingdao Kingagroot Chemical Compound Co., Ltd., priority 2018, dated 2025)

Key:
Format in all cases: in vivo
Echinochloa crusgalli = assay: Post-emergence test experiment, Echinochloa crusgalli; details: 1000 g a.i./ha, 3 weeks in greenhouse, fresh weight inhibition
In short: (§1)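 Growth inhibition is given as reduction in fresh weight, assessed 3 weeks post-treatment in the greenhouse. Spray solutions (acetone, tween-80, water, with 1.5 L/ha methyl oleate concentrate synergist) were applied to weeds and crops at 2-3 leaves, 2 weeks from sowing.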

Digitaria sanguinalis = assay: Post-emergence test experiment, Digitaria sanguinalis; details: 1000 g a.i./ha, 3 weeks in greenhouse, fresh weight inhibition
In short: as §1

[1] = system: Monocotyledonous and dicotyledonous weed seeds and main crop seeds; assay: Post-emergence test experiment, other weeds and crops (Table 4, 1000 g a.i./ha); details: 3 weeks in greenhouse, fresh weight inhibition
In short: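 Growth inhibition is scored on fresh weight. Spray solutions were made in acetone with tween-80, diluted in water, plus 1.5 L/ha methyl oleate emulsible concentrate. Plants from greenhouse-grown weed and crop seeds were treated post-emergence at 2-3 leaves, 2 weeks after sowing.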

SMILES	Activity level (growth inhibition rate), Echinochloa crusgalli (Echinochloa crusgalli)	Activity level (growth inhibition rate), Digitaria sanguinalis (Digitaria sanguinalis)	Activity level (growth inhibition rate), Abutilon theophrasti Medic. [1]	Activity level (growth inhibition rate), Galium aparine [1]	Activity level (growth inhibition rate), Monochoria Vaginalis [1]
C[C@@H](Oc1nc(F)c(Cl)c(N)c1Cl)C(=O)SCc1cccc(C#N)c1 [Compound 2-336]	5 (Level 5: the growth inhibition rate is greater than 85%)	5 (Level 5: the growth inhibition rate is greater than 85%)	5 (Level 5: the growth inhibition rate is greater than 85%)	5 (Level 5: the growth inhibition rate is greater than 85%)	5 (Level 5: the growth inhibition rate is greater than 85%)
C[C@@H](Oc1nc(F)c(Cl)c(N)c1Cl)C(=O)SCc1ccncc1 [Compound 2-345]	5 (Level 5: the growth inhibition rate is greater than 85%)	5 (Level 5: the growth inhibition rate is greater than 85%)	5 (Level 5: the growth inhibition rate is greater than 85%)	5 (Level 5: the growth inhibition rate is greater than 85%)	5 (Level 5: the growth inhibition rate is greater than 85%)
C[C@@H](Oc1nc(F)c(Cl)c(N)c1Cl)C(=O)Sc1ccncc1 [Compound 2-363]	5 (Level 5: the growth inhibition rate is greater than 85%)	5 (Level 5: the growth inhibition rate is greater than 85%)	5 (Level 5: the growth inhibition rate is greater than 85%)	5 (Level 5: the growth inhibition rate is greater than 85%)	5 (Level 5: the growth inhibition rate is greater than 85%)
CC(C)CCCSC(=O)[C@@H](C)Oc1nc(F)c(Cl)c(N)c1Cl [Compound 2-108]	5 (Level 5: the growth inhibition rate is greater than 85%)	5 (Level 5: the growth inhibition rate is greater than 85%)	5 (Level 5: the growth inhibition rate is greater than 85%)	5 (Level 5: the growth inhibition rate is greater than 85%)	5 (Level 5: the growth inhibition rate is greater than 85%)
C[C@@H](Oc1nc(F)c(Cl)c(N)c1Cl)C(=O)OCCF [Compound 2-276]	5 (Level 5: the growth inhibition rate is greater than 85%)	5 (Level 5: the growth inhibition rate is greater than 85%)	5 (Level 5: the growth inhibition rate is greater than 85%)	5 (Level 5: the growth inhibition rate is greater than 85%)	5 (Level 5: the growth inhibition rate is greater than 85%)
CCCCCOC(=O)[C@@H](C)Oc1nc(F)c(Cl)c(N)c1Cl [Compound 2-85]	5 (Level 5: the growth inhibition rate is greater than 85%)	5 (Level 5: the growth inhibition rate is greater than 85%)	5 (Level 5: the growth inhibition rate is greater than 85%)	5 (Level 5: the growth inhibition rate is greater than 85%)	5 (Level 5: the growth inhibition rate is greater than 85%)
CC(Oc1nc(F)c(Cl)c(N)c1Cl)C(=O)OCc1ccc(Cl)cc1 (centres unmarked) [Compound 2-318]	5 (Level 5: the growth inhibition rate is greater than 85%)	5 (Level 5: the growth inhibition rate is greater than 85%)	5 (Level 5: the growth inhibition rate is greater than 85%)	5 (Level 5: the growth inhibition rate is greater than 85%)	5 (Level 5: the growth inhibition rate is greater than 85%)
CC(Oc1nc(F)c(Cl)c(N)c1Cl)C(=O)SCc1ccc(Br)cc1 (centres unmarked) [Compound 2-325]	5 (Level 5: the growth inhibition rate is greater than 85%)	5 (Level 5: the growth inhibition rate is greater than 85%)	5 (Level 5: the growth inhibition rate is greater than 85%)	5 (Level 5: the growth inhibition rate is greater than 85%)	5 (Level 5: the growth inhibition rate is greater than 85%)
CC(Oc1nc(F)c(Cl)c(N)c1Cl)C(=O)OCc1ccc(C(F)(F)F)cc1 (centres unmarked) [Compound 2-331]	5 (Level 5: the growth inhibition rate is greater than 85%)	5 (Level 5: the growth inhibition rate is greater than 85%)	5 (Level 5: the growth inhibition rate is greater than 85%)	5 (Level 5: the growth inhibition rate is greater than 85%)	5 (Level 5: the growth inhibition rate is greater than 85%)
C[C@@H](Oc1nc(F)c(Cl)c(N)c1Cl)C(=O)SC(N)=O [Compound 2-373]	5 (Level 5: the growth inhibition rate is greater than 85%)	5 (Level 5: the growth inhibition rate is greater than 85%)	5 (Level 5: the growth inhibition rate is greater than 85%)	5 (Level 5: the growth inhibition rate is greater than 85%)	5 (Level 5: the growth inhibition rate is greater than 85%)
CCCCC(C)SC(=O)[C@@H](C)Oc1nc(F)c(Cl)c(N)c1Cl (some centres unmarked) [Compound 2-114]	5 (Level 5: the growth inhibition rate is greater than 85%)	5 (Level 5: the growth inhibition rate is greater than 85%)	5 (Level 5: the growth inhibition rate is greater than 85%)	5 (Level 5: the growth inhibition rate is greater than 85%)	5 (Level 5: the growth inhibition rate is greater than 85%)
Cc1ccc(CSC(=O)C(C)Oc2nc(F)c(Cl)c(N)c2Cl)cc1 (centres unmarked) [Compound 2-307]	5 (Level 5: the growth inhibition rate is greater than 85%)	5 (Level 5: the growth inhibition rate is greater than 85%)	5 (Level 5: the growth inhibition rate is greater than 85%)	5 (Level 5: the growth inhibition rate is greater than 85%)	5 (Level 5: the growth inhibition rate is greater than 85%)
C[C@@H](Oc1nc(F)c(Cl)c(N)c1Cl)C(=O)OCc1cccs1 [Compound 2-350]	5 (Level 5: the growth inhibition rate is greater than 85%)	5 (Level 5: the growth inhibition rate is greater than 85%)	5 (Level 5: the growth inhibition rate is greater than 85%)	5 (Level 5: the growth inhibition rate is greater than 85%)	5 (Level 5: the growth inhibition rate is greater than 85%)
CC(Oc1nc(F)c(Cl)c(N)c1Cl)C(=O)OCC=CCl (centres unmarked) [Compound 2-285]	5 (Level 5: the growth inhibition rate is greater than 85%)	5 (Level 5: the growth inhibition rate is greater than 85%)	5 (Level 5: the growth inhibition rate is greater than 85%)	5 (Level 5: the growth inhibition rate is greater than 85%)	5 (Level 5: the growth inhibition rate is greater than 85%)
C[C@@H](Oc1nc(F)c(Cl)c(N)c1Cl)C(=O)OCc1ccc(C#N)cc1 [Compound 2-337]	5 (Level 5: the growth inhibition rate is greater than 85%)	5 (Level 5: the growth inhibition rate is greater than 85%)	5 (Level 5: the growth inhibition rate is greater than 85%)	5 (Level 5: the growth inhibition rate is greater than 85%)	5 (Level 5: the growth inhibition rate is greater than 85%)
CCC(C)CCSC(=O)[C@@H](C)Oc1nc(F)c(Cl)c(N)c1Cl (some centres unmarked) [Compound 2-106]	5 (Level 5: the growth inhibition rate is greater than 85%)	5 (Level 5: the growth inhibition rate is greater than 85%)	5 (Level 5: the growth inhibition rate is greater than 85%)	5 (Level 5: the growth inhibition rate is greater than 85%)	5 (Level 5: the growth inhibition rate is greater than 85%)
